Among the data in patent US4435426A, “Ethers of phenol active on the cardiovascular system, process for preparing same and use thereof in drugs” (Societe Anonyme dite: Sanofi, priority 1981, dated 1984) are ED50 values, retold here.

Experiment [1] deals with T1, adrenergic β receptors (β1) (Canis lupus familiaris, UniProt P79148).
T1 construct: The dog is anaesthetized with sodium pentobarbital; from tissue; host or cells: whole anaesthetized dog (in vivo, heart rate)
The experiment in a line: Antagonism of the effects of isoprenaline: tachycardia (β1), anaesthetized dog, intravenous. Type of experiment: in vivo. Conditions: 50% inhibition of tachycardia (β1) induced by intravenous isoprenaline, i.v., read-out: ID 50 isoprenaline β1. As for the experimental part: (§1) The dog is anaesthetized with sodium pentobarbital administered intravenously at the dose of 30 mg/kg. A canula placed in the short saphenous vein allows the products to be injected intravenously. The animal is intubed and breathes spontaneously.
(§2) The cardiac frequency and the systemic arterial pressure are studied and the variations of these parameters are observed after intravenous injection of the product to be tested, each product being injected at increasing doses.
(§3) The antagonism of the products vis-a-vis the β stimulant cardiovascular effects of isoprenaline on the adrenergic β receptors was sought. The results are shown in Table below and expressed in ID 50: this is the dose expressed in mg/kg which provokes 50% inhibition of tachycardia (β1) and of hypertension (β2) induced by the isoprenaline administered by intravenous route.

Experiment [2] concerns the target T2, adrenergic β receptors (β2) (Canis lupus familiaris, UniProt P54833).
T2 construct: from tissue; host or cells: whole anaesthetized dog (in vivo, systemic arterial pressure)
The experiment in a line: Antagonism of the effects of isoprenaline: hypertension (so in the source) (β2), anaesthetized dog, intravenous. The class given is in vivo. As to conditions: 50% inhibition of hypertension (β2) induced by intravenous isoprenaline, i.v., read-out: ID 50 isoprenaline β2. As for the experimental part:
as §1, §2, §3

T2 sequence (P54833 whole entry): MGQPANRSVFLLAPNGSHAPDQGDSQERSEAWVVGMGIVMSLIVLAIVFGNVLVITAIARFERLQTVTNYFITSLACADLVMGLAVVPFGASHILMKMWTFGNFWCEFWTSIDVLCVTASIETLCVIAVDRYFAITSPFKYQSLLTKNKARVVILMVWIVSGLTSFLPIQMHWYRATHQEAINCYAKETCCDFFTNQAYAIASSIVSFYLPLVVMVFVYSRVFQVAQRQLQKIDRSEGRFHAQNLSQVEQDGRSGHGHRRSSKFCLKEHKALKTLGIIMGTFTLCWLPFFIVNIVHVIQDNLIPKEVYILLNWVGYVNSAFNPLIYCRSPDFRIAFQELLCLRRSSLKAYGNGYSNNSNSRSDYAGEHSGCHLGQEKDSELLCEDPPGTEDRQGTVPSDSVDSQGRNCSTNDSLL
T1 sequence (P79148 whole entry): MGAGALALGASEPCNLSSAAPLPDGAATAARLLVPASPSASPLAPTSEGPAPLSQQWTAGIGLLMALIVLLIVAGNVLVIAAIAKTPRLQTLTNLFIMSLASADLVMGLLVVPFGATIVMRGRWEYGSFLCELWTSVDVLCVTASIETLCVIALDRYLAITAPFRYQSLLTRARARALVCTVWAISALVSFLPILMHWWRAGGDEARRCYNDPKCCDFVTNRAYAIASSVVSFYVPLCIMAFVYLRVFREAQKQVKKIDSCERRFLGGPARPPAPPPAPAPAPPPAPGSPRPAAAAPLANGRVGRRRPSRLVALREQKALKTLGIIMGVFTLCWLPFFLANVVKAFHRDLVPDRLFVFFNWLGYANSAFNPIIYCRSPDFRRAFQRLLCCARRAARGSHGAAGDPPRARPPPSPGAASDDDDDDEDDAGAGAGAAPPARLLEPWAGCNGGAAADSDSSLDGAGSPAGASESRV

As for `Cc1ccc(OCC(O)CNC(C)(C)C)c2c1CCCC2=O` (centres unmarked) [compound 7706], the ED50 in experiment [1] turned out to be 0.1 mg/kg; in experiment [2], 0.01 mg/kg.

Regarding `C#CC(C)(C)NCC(O)COc1ccc(C)c2c1C(=O)CCC2` (centres unmarked) [compound 7760], the ED50 in experiment [1] was determined as 0.1 mg/kg; in experiment [2], 0.03 mg/kg.

`CC(C)(C)NCC(O)COc1cccc2c1C(=O)CCC2` (centres unmarked) [compound 7285, 1-(8-oxo 5,6,7,8-tetrahydro 1-naphthyloxy) 2-hydroxy 3-tertiobutylamino propane]: the ED50 in experiment [2] stood at 0.03 mg/kg.
